Measured values from patent US20120128580A1, “PRESELECTION OF SUBJECTS FOR THERAPEUTIC TREATMENT WITH ELESCLOMOL BASED ON HYPOXIC STATUS” (SYNTA PHARMACEUTICALS CORP., priority 2010, published 2012).

System: cancer
Assay: Chart review of treatment outcomes by level of hypoxia
Assay type: in vivo, human
Protocol: A chart review analysis is performed to determine the efficacy of elesclomol for the treatment of cancer based on the level of hypoxia of the tumor based on markers assessed during the treatment of the subjects. […] Subjects who were treated with elesclomol for whom no levels of hypoxic markers were determined can be used as an unstratified control group to understand the efficacy of elesclomol on a treatment population not selected based on the level of hypoxia in the subject/tumor. Alternatively, the population analyzed in the study for which hypoxia levels (e.g., LDH marker levels) can be compared to historical control samples in which an unstratified population was analyzed for response to elesclomol. […] Preferably, the same marker(s) of hypoxia is measured in each of the subjects, e.g., at least one isoform or subunit of lactate dehydrogenase (LDH) or hypoxia inducible factor (HIF); at least one pro-angiogenic form of vascular endothelial growth factor (VEGF), phosphorylated VEGF receptor (pKDR) 1, 2, or 3; neurolipin 1 (NRP-1), pyruvate dehydrokinase (PDH-K), and ornithine decarboxylase (ODC). […]

CN(NC(=O)CC(=O)NN(C)C(=S)c1ccccc1)C(=S)c1ccccc1 [Elesclomol, N-malonyl-bis(N′-methyl-N′-thiobenzoylhydrazide)]
response of subjects with a low level of hypoxia compared to a high level of hypoxia: better response
